Source: US9422285B2, “Substituted pyrazolo[1,5-A]-pyridine-3-carboxamides and use thereof” (Bayer Pharma Aktiengesellschaft, priority 2014, dated 2016)

biological target: T1, recombinant guanylate cyclase reporter cell line (Rattus norvegicus, UniProt P19686+P20595); assay: Effect on a recombinant guanylate cyclase reporter cell line (B-2); format: cell-based; details: in some cases mean values for individual determinations
T1 construct: expressed in transfected cells
T1 sequence (P19686 1-690): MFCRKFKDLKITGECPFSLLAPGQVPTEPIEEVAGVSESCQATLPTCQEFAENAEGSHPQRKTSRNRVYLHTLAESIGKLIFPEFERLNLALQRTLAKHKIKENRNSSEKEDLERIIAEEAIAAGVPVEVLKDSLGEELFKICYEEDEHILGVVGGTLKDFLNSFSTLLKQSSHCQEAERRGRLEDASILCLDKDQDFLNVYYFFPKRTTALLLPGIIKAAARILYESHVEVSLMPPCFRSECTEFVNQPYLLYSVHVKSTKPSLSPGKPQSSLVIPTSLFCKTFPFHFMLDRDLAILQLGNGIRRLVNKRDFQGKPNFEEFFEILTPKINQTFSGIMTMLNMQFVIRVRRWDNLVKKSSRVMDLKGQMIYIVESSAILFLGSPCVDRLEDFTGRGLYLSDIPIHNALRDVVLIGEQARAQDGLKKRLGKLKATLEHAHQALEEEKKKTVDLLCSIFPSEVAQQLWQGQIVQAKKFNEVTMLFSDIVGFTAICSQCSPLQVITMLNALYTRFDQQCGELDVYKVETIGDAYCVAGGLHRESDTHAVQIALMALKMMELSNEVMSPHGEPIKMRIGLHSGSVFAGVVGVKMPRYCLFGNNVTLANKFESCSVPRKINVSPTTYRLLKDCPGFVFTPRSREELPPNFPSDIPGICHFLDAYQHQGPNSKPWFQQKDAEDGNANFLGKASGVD
T1 sequence (P20595 1-619): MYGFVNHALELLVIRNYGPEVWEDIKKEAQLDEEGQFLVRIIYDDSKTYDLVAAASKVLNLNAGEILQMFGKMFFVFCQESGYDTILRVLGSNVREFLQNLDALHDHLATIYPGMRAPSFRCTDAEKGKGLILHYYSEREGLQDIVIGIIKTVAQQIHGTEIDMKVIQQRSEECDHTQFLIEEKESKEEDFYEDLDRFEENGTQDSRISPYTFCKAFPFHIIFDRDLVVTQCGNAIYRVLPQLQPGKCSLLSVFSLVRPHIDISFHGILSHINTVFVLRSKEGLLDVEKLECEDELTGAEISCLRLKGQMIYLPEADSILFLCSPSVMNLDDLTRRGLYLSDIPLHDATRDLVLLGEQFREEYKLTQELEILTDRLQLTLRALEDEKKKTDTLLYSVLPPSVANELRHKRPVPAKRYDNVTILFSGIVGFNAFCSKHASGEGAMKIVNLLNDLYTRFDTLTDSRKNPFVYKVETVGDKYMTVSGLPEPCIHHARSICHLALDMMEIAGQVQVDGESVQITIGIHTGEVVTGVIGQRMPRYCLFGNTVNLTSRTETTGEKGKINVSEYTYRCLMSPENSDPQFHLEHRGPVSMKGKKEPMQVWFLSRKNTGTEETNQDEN
Procedure: B-2. Effect on a Recombinant Guanylate Cyclase Reporter Cell Line
The cellular effect of the inventive compounds is determined using a recombinant guanylate cyclase reporter cell line, as described in F. Wunder et al., Anal. Biochem. 339, 104-112 (2005).
Representative MEC values (MEC=minimum effective concentration) for the inventive compounds are shown in the table below (in some cases as mean values for individual determinations): […]

MEC (minimum effective concentration) [µM]	Compound
1.0	Cc1ccc2c(c1)OC(C)(C)CC2NC(=O)c1c(C)nn2c(OCc3c(F)cccc3F)cc(C)cc12 (racemic) [Example 137, rac-7-[(2,6-Difluorobenzyl)oxy]-2,5-dimethyl-N-(2,2,7-trimethyl-3,4-dihydro-2H-chromen-4-yl)pyrazolo[1,5-a]pyridine-3-carboxamide]
0.1	Cc1cc(OCc2c(F)cccc2F)n2nc(C)c(C(=O)NC3CCCc4ccccc43)c2c1 (racemic) [Example 138, rac-7-[(2,6-Difluorobenzyl)oxy]-2,5-dimethyl-N-(1,2,3,4-tetrahydronaphthalen-1-yl)pyrazolo[1,5-a]pyridine-3-carboxamide]
1.0	Cc1cc(OCc2c(F)cccc2F)n2nc(C)c(C(=O)NC3CCCc4c(N)cccc43)c2c1 (racemic) [Example 139, rac-N-(5-Amino-1,2,3,4-tetrahydronaphthalen-1-y1)-74(2,6-difluorobenzyl)oxy]-2,5-dimethylpyrazolo[1,5-a]pyridine-3-carboxamide]
0.3	Cc1cc(OCc2c(F)cccc2F)n2nc(C)c(C(=O)NC3CCOc4c(C#N)cccc43)c2c1 (racemic) [Example 140, rac-N-(8-Cyano-3,4-dihydro-2H-chromen-4-yl)-7-[(2,6-difluorobenzyl)oxy]-2,5-dimethylpyrazolo[1,5-a]pyridine-3-carboxamide]
3.0	C=Cc1cccc(C(N)CNC(=O)c2c(C)nn3c(OCc4c(F)cccc4F)cc(C)cc23)c1 (racemic) [Example 141, rac-N-[2-Amino-2-(3-vinylphenyl)ethyl]-7-[(2,6-difluorobenzyl)oxy]-2,5-dimethylpyrazolo[1,5-a]pyridine-3-carboxamide]
10	Cc1cc(OCc2c(F)cccc2F)n2nc(C)c(C(=O)NCC3CNCCO3)c2c1 (racemic) [Example 142, rac-7-[(2,6-Difluorobenzyl)oxy]-2,5-dimethyl-N-(morpholin-2-ylmethyl)pyrazolo[1,5-a]pyridine-3-carboxamide]
1.0	Cc1cc(OCc2c(F)cccc2F)n2nc(C)c(C(=O)NC3CCC(C)(C)c4ccccc43)c2c1 (racemic) [Example 145, rac-7-[(2,6-Difluorobenzyl)oxy]-N-(4,4-dimethyl-1,2,3,4-tetrahydronaphthalen-1-yl)-2,5-dimethylpyrazolo[1,5-a]pyridine-3-carboxamide]
1.0	COc1ccc2c(c1)C(NC(=O)c1c(C)nn3c(OCc4c(F)cccc4F)cc(C)cc13)CCC2 (racemic) [Example 146, rac-7-[(2,6-Difluorobenzyl)oxy]-N-(7-methoxy-1,2,3,4-tetrahydronaphthalen-1-yl)-2,5-dimethylpyrazolo[1,5-a]pyridine-3-carboxamide]
0.3	Cc1cc(OCc2c(F)cccc2F)n2nc(C)c(C(=O)NC3CCOc4c(Cl)cccc43)c2c1 (racemic) [Example 147, rac-N-(8-Chloro-3,4-dihydro-2H-chromen-4-yl)-7-[(2,6-difluorobenzyl)oxy]-2,5-dimethylpyrazolo[1,5-a]pyridine-3-carboxamide]
1.0	Cc1cc(OCc2c(F)cccc2F)n2nc(C)c(C(=O)NC3CCOc4c(C)cc(F)cc43)c2c1 (racemic) [Example 148, rac-7-[(2,6-Difluorobenzyl)oxy]-N-(6-fluoro-8-methyl-3,4-dihydro-2H-chromen-4-yl)-2,5-dimethylpyrazolo[1,5-a]pyridine-3-carboxamide]
0.3	Cc1cc(OCc2c(F)cccc2F)n2nc(C)c(C(=O)NC3CCCc4cc(F)ccc43)c2c1 (racemic) [Example 150, rac-7-[(2,6-Difluorobenzyl)oxy]-N-(6-fluoro-1,2,3,4-tetrahydronaphthalen-1-yl)-2,5-dimethylpyrazolo[1,5-a]pyridine-3-carboxamide]
